# Where two headings read alike, the source gives them in different places.
# Legend:
# [1] = system: bone marrow cell growth; conditions: cited from earlier work; for limiting toxicity: in vivo
# [2] = Administration of dilazep to Rhesus monkeys, plasma uridine levels and toxicity; type: in vivo; conditions: dilazep 1 to 2 mg/kg of body weight per day
# Experimental: Uridine secretion can be inhibited by administering compounds of the type noted above by Formula (I) or by administering the uridine competing compounds noted above. Uridine secretion inhibiting compounds of the type denoted by Formula (I) typically are administered at preferred doses in the range of about 1 to 5 mg/kg of body weight 2 to 3 times per day. Uridine competing compounds preferably are administered at doses ranging from 5 to 50 mg/kg of body weight 2 to 3 times per day. […] Moreover, such treatment increases by about 4 to 5-fold, the plasma half-life of uridine. These uridine levels are roughly equivalent to those obtained by administering high doses of uridine (1 to 3 g/m^2 per day), without the toxic side effects associated with uridine administration.
# [3] = Single subcutaneous dose of uridine with and without dilazep, plasma/urine uridine pharmacokinetics; type: in vivo, rhesus monkeys (Macaca mulatta); conditions: rhesus monkey, sc
# Experimental: Single dose of Uridine and effect of Dilazep
# The uridine was administered both with and without dilazep. When dilazep was given it was administered at either 1 or 2 mg/kg of body weight, dissolved in sterile phosphate-buffed saline (pH 7.4). Samples of blood (3 ml) were collected in heparinized tubes at 0, 5, 10, 15 and 30 minutes and 1, 2, 4 and 6 hours after injection. When possible, urine was also collected by cytocentesis at similar time intervals. The plasma and urine samples were frozen at -20° C. until analysis.
# The proteins were removed by centrifugation, and sample temperature was maintained at 5° C. The supernant was removed and an equivalent amount of a 1:1 mixture of ice cold trioctylamine and 1,1,2-trichlorotrifluoroethane (freon) was added. […] Reversed-phased chromatography was performed using a Hypersil ODS 5 μm column (Jones Chromatography, Littleton, Colo.). Urine samples were filtered through a 0.45 μm pore size Acro LC 13 filter (Gelman Sciences, Ann Arbor, Mich.) to remove proteins and 50 μl aliquots were analyzed by HPLC. Isocratic elution was performed at 1 ml/min with 10 mM phosphoric acid and 10 μM heptane sulfonic acid (pH 3.1). Column temperature was maintained at 25° C., and the absorbance was measured at 254 nm. […] After adding 5 ml of Econo-Safe scintillation fluor (Research Products International Corp., Mount Prospect, Ill.), radioactivity was measured by using Beckman Model LS 5000TA liquid scintillation counter (Beckman Instruments, Inc., Fullerton, Calif.) equipped with an automatic quenching correction program. […] The detection limits were 2.0 μM.
# The pharmacokinetic parameters of uridine was estimated by […] model-independent methods using a SIPHAR/Base program. The AUC was determined by the trapeziodal rule with extrapolation to time infinity using the terminal disposition slope (K) generated by a weighted nonlinear least-squares regression of an exponential fit of the data, with the weighted square factor set as the reciprocal of the calculated concentration squared. […] The peak plasma concentration (Cmax) values and time to peak plasma concentration (Tmax) values were observed experimental values. Renal clearance (CLR) of uridine was calculated by dividing the […] by the AUC.
# [4] = cited from earlier work
# [5] = cited from earlier work; remark: listed apart in the source
# [6] = system: hereditary orotic aciduria; conditions: human, in vivo; cited from earlier work
# [7] = system: hearts; conditions: hearts of dogs; cited from earlier work
# [8] = system: isolated rat skeletal muscle; conditions: low concentrations of uridine (10^-4 M); cited from earlier work
# [9] = system: heart tissue; conditions: heart tissue of rabbits; cited from earlier work
# [10] = system: CCl4 damaged rat livers; conditions: cited from earlier work
# [11] = system: hearts; conditions: hearts of rats; cited from earlier work
# [12] = system: GABA receptor; conditions: cerebellar membranes and brain areas associated with convulsions; cited from earlier work
# [13] = system: hearts; conditions: hearts of frogs; cited from earlier work
# [14] = plasma, uridine parameter, 83.3 mg/kg uridine s.c., no dilazep
smiles,measurement,setting,value
"O=c1[nH]cc(F)c(=O)[nH]1 [5-FU, 5-fluorouracil]",limiting toxicity,[1],myelosuppression
"Cc1cn([C@H]2C[C@H](N=[N+]=[N-])[C@@H](CO)O2)c(=O)[nH]c1=O [AZT, 3'-azido-3'-deoxythymidine]",limiting toxicity,[1],myelosuppression
"O=c1[nH]c(=O)n([C@H]2C[C@H](O)[C@@H](CO)O2)cc1F [FdUrd, 5-fluoro-2'-deoxyuridine]",limiting toxicity,[1],myelosuppression
"COc1cc(C(=O)OCCCN2CCCN(CCCOC(=O)c3cc(OC)c(OC)c(OC)c3)CC2)cc(OC)c1OC [dilazep, N,N'-bis[3-(3,4,5-trmethoxybenzoyloxy)propyl] homopiperazine]",toxicity,[2],without apparent toxicity
O=c1ccn([C@@H]2O[C@H](CO)[C@@H](O)[C@H]2O)c(=O)[nH]1 [uridine],Cmax/C0,"[3]; in vivo, 83.3 mg/kg",10.7
same,CL renal,"[3]; in vivo, uridine parameter, 83.3 mg/kg uridine s.c., no dilazep, read-out: ClR (renal clearance of uridine) (converted)",1.12 mL/min/kg
same,AUC,[3]; [14],370 µM·h
same,Cmax,[3]; [14],175 µM
same,Tmax,[3]; [14],30 min
same,concentration in blood plasma,"[4]; endogenous, different species",1 to 5 µM
same,plasma uridine entering the liver by the portal vein degraded in single pass,[4]; hepatic uridine phosphorylase,More than 90%
same,half life in the plasma,[4]; in vivo,approximately 2 minutes
same,urinary excretion of uridine,"[5]; high doses of uridine (1 to 3 gm/m^2), several times per day",15-40 % of the dose
same,toxic side effects,[5]; high doses of uridine,"phlebitis, pyrogenic reactions and diarrhea"
same,management of patients with hereditary orotic aciduria,[6],effective to manage patients with hereditary orotic aciduria
same,protection (and reversal) from myelosuppression of pyrimidine analogues,[1]; in vitro and in vivo,Complete protection (and reversal)
same,myocardial contractility,[7],increase myocardial contractility
same,glucose uptake and glycogen synthesis,[8],increase glucose uptake and glycogen synthesis
same,"myocardial performance, glucose uptake, glycogen synthesis and breakdown of ATP",[9],"increase myocardial performance, glucose uptake, glycogen synthesis and the breakdown of ATP"
same,conjugating and excretory functions,[10],normalize conjugating and excretory functions
same,myocardial contractility,[11],increase myocardial contractility
same,effect on the GABA receptor,[12],may have an agonist effect on the receptor
same,myocardial contractility,[13],increase myocardial contractility

# — US5723449A, “Methods and compositions for inhibiting uridine secretion” (priority 1996, dated 1998)
